From patent US10173971B2, “Picolinamides with fungicidal activity” (DOW AGROSCIENCES LLC, priority 2014, dated 2019)
Like-named read-outs stand apart in the source and are kept apart here.

How the values were obtained:
Zymoseptoria tritici = assay: Fungicidal activity: leaf blotch of wheat (SEPTTR), wheat seedlings, booth sprayer to run-off or track spray; assay type: in vivo; conditions: Low-Volume Cereal Activity at 121.5 g/H
Puccinia triticina = assay: Fungicidal activity: wheat brown rust (PUCCRT), wheat seedlings, booth sprayer to run-off or track spray; assay type: in vivo; conditions: Low-Volume Cereal Activity at 121.5 g/H
[1] = 24 h, 1 Day Protectant, read-out: SEPTTR 1DP
[2] = 72 h, 3 Day Curative, read-out: SEPTTR 3DC
[3] = 24 h, 1 Day Protectant, read-out: PUCCRT 1DP
[4] = 72 h, 3 Day Curative, read-out: PUCCRT 3DC

| Compound | pest or weed control at 121.5 g/ha (Zymoseptoria tritici; [1]) | pest or weed control at 121.5 g/ha (Zymoseptoria tritici; [2]) | pest or weed control at 121.5 g/ha (Puccinia triticina; [3]) | pest or weed control at 121.5 g/ha (Puccinia triticina; [4]) |
| --- | --- | --- | --- | --- |
| COc1ccnc(C(=O)N[C@@H](C)C(=O)O[C@@H](C)[C@H](Cc2ccc(Cl)c(Cl)c2)c2ccccc2)c1OCOC(C)=O [compound 218] | 80 to 100% | 0 to 80% | 0 to 80% | 0 to 80% |
| COc1ccnc(C(=O)N[C@@H](C)C(=O)O[C@@H](C)[C@H](Cc2ccc(Cl)c(Cl)c2)c2ccccc2)c1OCOC(=O)C(C)C [compound 219] | 0 to 80% | 0 to 80% | 0 to 80% | 0 to 80% |
| COc1ccnc(C(=O)N[C@@H](C)C(=O)O[C@@H](C)[C@H](Cc2ccc(C)cc2)c2ccccc2)c1OC(C)=O [compound 220] | 80 to 100% | 80 to 100% | 0 to 80% | 0 to 80% |
| COc1ccnc(C(=O)N[C@@H](C)C(=O)O[C@@H](C)[C@H](Cc2ccc(C)cc2)c2ccccc2)c1OCOC(C)=O [compound 221] | 80 to 100% | 80 to 100% | 80 to 100% | 0 to 80% |
| COc1ccnc(C(=O)N[C@@H](C)C(=O)O[C@@H](C)[C@H](Cc2ccc(F)cc2)c2ccccc2)c1OCOC(C)=O [compound 222] | 80 to 100% | 80 to 100% | 80 to 100% |  |
| COc1ccnc(C(=O)N[C@@H](C)C(=O)O[C@@H](C)[C@H](Cc2ccc(F)cc2)c2ccccc2)c1OCOC(=O)C(C)C [compound 223] | 80 to 100% | 80 to 100% | 80 to 100% | 0 to 80% |
| COc1ccnc(C(=O)N[C@@H](C)C(=O)O[C@@H](C)[C@H](Cc2ccc3ccccc3c2)c2ccccc2)c1OC(C)=O [compound 224] | 0 to 80% | 0 to 80% | 0 to 80% |  |
| COc1ccnc(C(=O)N[C@@H](C)C(=O)O[C@@H](C)[C@H](Cc2ccc3ccccc3c2)c2ccccc2)c1OCOC(C)=O [compound 225] | 0 to 80% | 0 to 80% | 0 to 80% | 0 to 80% |
| COc1ccnc(C(=O)N[C@@H](C)C(=O)O[C@@H](C)[C@H](Cc2ccc3ccccc3c2)c2ccccc2)c1OCOC(=O)C(C)C [compound 226] | 0 to 80% | 0 to 80% | 0 to 80% |  |
| COc1ccnc(C(=O)N[C@@H](C)C(=O)O[C@@H](C)[C@@H](COCc2ccccc2)Cc2ccccc2)c1OC(C)=O [compound 227] | 80 to 100% | 0 to 80% | 0 to 80% | 0 to 80% |
| COc1ccnc(C(=O)N[C@@H](C)C(=O)O[C@@H](C)[C@@H](COCc2ccccc2)Cc2ccc(F)cc2)c1OC(C)=O [compound 228] | 80 to 100% | 0 to 80% | 0 to 80% | 0 to 80% |
| COc1ccnc(C(=O)N[C@@H](C)C(=O)O[C@@H](C)[C@H](Cc2ccc(F)cc2)C(C)(C)OCc2ccccc2)c1OC(C)=O [compound 229] | 80 to 100% | 0 to 80% | 0 to 80% |  |
| COc1ccnc(C(=O)N[C@@H](C)C(=O)O[C@@H](C)[C@H](Cc2ccccc2)C(C)(C)OCc2ccccc2)c1OC(C)=O [compound 230] | 80 to 100% | 80 to 100% | 80 to 100% | 0 to 80% |
| COC[C@@H](Cc1ccc(F)cc1)[C@H](C)OC(=O)[C@H](C)NC(=O)c1nccc(OC)c1OC(C)=O [compound 231] | 0 to 80% | 0 to 80% | 0 to 80% | 0 to 80% |
| COc1ccnc(C(=O)N[C@@H](C)C(=O)O[C@@H](C)[C@H](Cc2ccc(F)cc2)C(C)(C)OC)c1OC(C)=O [compound 232] | 0 to 80% | 0 to 80% | 0 to 80% |  |
| CCOCC(=O)OCOc1c(OC)ccnc1C(=O)N[C@@H](C)C(=O)O[C@@H](C)[C@@H](COCc1ccccc1)Cc1ccc(F)cc1 [compound 233] | 0 to 80% | 0 to 80% | 80 to 100% | 0 to 80% |
| CCOCC(=O)OCOc1c(OC)ccnc1C(=O)N[C@@H](C)C(=O)O[C@@H](C)[C@@H](COCc1ccccc1)Cc1ccccc1 [compound 234] | 0 to 80% | 80 to 100% | 80 to 100% | 80 to 100% |
| CCOCC(=O)OCOc1c(OC)ccnc1C(=O)N[C@@H](C)C(=O)O[C@@H](C)[C@H](Cc1ccc(F)cc1)C(C)(C)OCc1ccccc1 [compound 235] | 80 to 100% | 0 to 80% | 80 to 100% | 0 to 80% |
